Results: patent US6368598B1, “Drug complex for treatment of metastatic prostate cancer” (priority 1996, dated 2002)
Residues, ends and D or L forms follow the SMILES beside them. *: point of attachment. pNA = O=[N+]([O-])c1ccc(N*)cc1; MeOSuc = COC(=O)CCC(=O)*

Assays:
[1] = system: DU-145 prostate cancer cells; assay: Effect of TG and RT on proliferation of DU-145 prostate cancer cells (cell count, trypan blue); format: cell-based, human; settings: for Total Number of Cells per Dish: counted at 48 hours
[2] = system: rat and human androgen independent prostate cancer cell lines; settings: 500 nm thapsigargin, cited from earlier work
[3] = system: pumps of erythrocytes, plasma, or mitochondrial membranes; settings: cited from earlier work
PC3 cells = assay: Effect of TG and RT on clonogenic survival of PC3 cells; format: cell-based, human; settings: for Surviving Fraction (SF) (PE treated/PE control): plated at 24 hours
Method: PC3 and DU-145 androgen-independent human prostate cancer cell lines obtained from the American Tissue Culture Collection (ATCC) are used for in vitro studies. Cells are grown as monolayer cultures in RPMI 1640 medium supplemented with 10% fetal bovine serum, 2 mM glutamine and antibiotics. Radiation survival curves and radiation-induced apoptotic DNA fragmentation patterns in these cell lines are already established in the laboratory. Cells are treated with this drug, carrier-peptide, or carrier-peptide-drug complex with or without radiation. After 24 hours, the cells are trypsinized and plated for clonogenic survival studies. Apoptotic response to the treatments is determined by: 1) agarose gel electrophoresis analysis of DNA fragmentation at 48 and 72 hours after treatment, 2) morphological observations after staining with DAPI, and 3) terminal deoxytransferase-mediated dUTP Nick End Labeling (TUNEL) assay.

[4] = system: Ca++-ATPase pumps of the endoplasmic reticulum; settings: cited from earlier work
[5] = system: human DU-145 prostate carcinoma xenograft; assay: Growth delay of human DU-145 prostate carcinoma xenograft in male SCID mice; format: in vivo
Method: Two human prostate carcinoma tumor lines grown as xenografts in male SCID mice are used: the human DU-145 prostate carcinoma which is not androgen dependent and the human LNCaP prostate carcinoma which produces PSA and has a well characterized androgen receptor and response to androgens. The drug complexes are administered up to maximally tolerated doses alone and in conjunction with fractionated radiation therapy (^137Cs Gamma Cell 40) delivered to the tumor bearing limb.
The progress of each tumor is assessed thrice weekly by caliper measurements until the tumors reach 2000 mm^3. Tumor growth delay is calculated as the number of days for each tumor to reach a volume of 500 mm^3 as compared to untreated controls. The efficacy of combination treatments is assessed using isobologram analysis for determination of additivity/synergy.
Male SCID mice bearing the human DU-145 prostate carcinoma Xenograft growing subcutaneously in a hind-limb were treated daily with TG (0.5 mg/kg) by IP injection from day 4-18 post tumor cell implantation. Some animal groups also received fractionated RT locally to the tumor bearing region on days 7-11 or days 7-11 and 14-18.

[6] = Cleavage in pooled human serum; format: in vitro ADME
Method: (§1) A tyrosine tripeptide (compound 1 in FIG. 5) was prepared using methods known to those in the peptide chemistry art. It is known that PSA cleaves its para-nitroanilide (pNA) derivative at the tyrosine site (compound 2 in FIG. 5). (Christensson, A. et al., Eur. J Biochem., 194:755-763 (1990)). It is also known that the “released” pNA makes it possible to study this reaction colormetrically.

[7] = Cleavage in newborn calf serum; format: in vitro ADME
Method: as §1

[8] = after administration to a person; cited from earlier work

C/C=C(/C)C(=O)O[C@H]1C(C)=C2[C@H]([C@@H]1OC(=O)CCCCCCC)[C@@](C)(OC(C)=O)C[C@H](OC(=O)CCC)[C@@]1(O)[C@H]2OC(=O)[C@@]1(C)O [Thapsigargin]
Total Number of Cells per Dish ([1]; TG 20 nM, 0 Gy): 1.0 10^6
Total Number of Cells per Dish ([1]; TG 20 nM, 2 Gy 2 hours after TG): 0.8 10^6
Total Number of Cells per Dish ([1]; TG 20 nM, 4 Gy 2 hours after TG): 0.3 10^6
Total Number of Cells per Dish ([1]; TG 20 nM, 8 Gy 2 hours after TG): 0.4 10^6
Total Number of Cells per Dish ([1]; TG 100 nM, 0 Gy): 0.7 10^6
Total Number of Cells per Dish ([1]; TG 100 nM, 2 Gy 2 hours after TG): 0.5 10^6
Total Number of Cells per Dish ([1]; TG 100 nM, 4 Gy 2 hours after TG): 0.5 10^6
Total Number of Cells per Dish ([1]; TG 100 nM, 8 Gy 2 hours after TG): 0.4 10^6
Total Number of Cells per Dish ([1]; TG 400 nM, 0 Gy): 0.7 10^6
Total Number of Cells per Dish ([1]; TG 400 nM, 2 Gy 2 hours after TG): 0.4 10^6
Total Number of Cells per Dish ([1]; TG 400 nM, 4 Gy 2 hours after TG): 0.3 10^6
Total Number of Cells per Dish ([1]; TG 400 nM, 8 Gy 2 hours after TG): 0.3 10^6
cell proliferation in vitro (result in words) ([1]; summary of Table 1): inhibits cell proliferation in vitro
apoptosis ([2]; within 72 to 96 hours): undergo apoptosis
clonogenic potential ([2]; within 72 to 96 hours): lose their clonogenic potential
intracellular Ca++ ([2]; lines with or without p53 expression): elevation of intracellular Ca^++
inhibition of pumps of erythrocytes, plasma, or mitochondrial membranes [3]: not
Surviving Fraction (SF) (PE treated/PE control) (PC3 cells; TG 20 nM, 0 Gy): 0.69
NET survival (SF/TG toxicity) (PC3 cells; TG 20 nM, 2 Gy): 0.61
Surviving Fraction (SF) (PE treated/PE control) (PC3 cells; TG 20 nM, 2 Gy): 0.42
NET survival (SF/TG toxicity) (PC3 cells; TG 20 nM, 4 Gy): 0.33
Surviving Fraction (SF) (PE treated/PE control) (PC3 cells; TG 20 nM, 4 Gy): 0.23
Surviving Fraction (SF) (PE treated/PE control) (PC3 cells; TG 50 nM, 0 Gy): 0.80
NET survival (SF/TG toxicity) (PC3 cells; TG 50 nM, 2 Gy): 0.49
Surviving Fraction (SF) (PE treated/PE control) (PC3 cells; TG 50 nM, 2 Gy): 0.39
NET survival (SF/TG toxicity) (PC3 cells; TG 50 nM, 4 Gy): 0.29
Surviving Fraction (SF) (PE treated/PE control) (PC3 cells; TG 50 nM, 4 Gy): 0.23
Surviving Fraction (SF) (PE treated/PE control) (PC3 cells; TG 100 nM, 0 Gy): 0.62
NET survival (SF/TG toxicity) (PC3 cells; TG 100 nM, 2 Gy): 0.40
Surviving Fraction (SF) (PE treated/PE control) (PC3 cells; TG 100 nM, 2 Gy): 0.25
NET survival (SF/TG toxicity) (PC3 cells; TG 100 nM, 4 Gy): 0.30
Surviving Fraction (SF) (PE treated/PE control) (PC3 cells; TG 100 nM, 4 Gy): 0.18
Surviving Fraction (SF) (PE treated/PE control) (PC3 cells; TG 200 nM, 0 Gy): 0.58
NET survival (SF/TG toxicity) (PC3 cells; TG 200 nM, 2 Gy): 0.43
Surviving Fraction (SF) (PE treated/PE control) (PC3 cells; TG 200 nM, 2 Gy): 0.25
NET survival (SF/TG toxicity) (PC3 cells; TG 200 nM, 4 Gy): 0.22
Surviving Fraction (SF) (PE treated/PE control) (PC3 cells; TG 200 nM, 4 Gy): 0.13
Surviving Fraction (SF) (PE treated/PE control) (PC3 cells; TG 400 nM, 0 Gy): 0.60
NET survival (SF/TG toxicity) (PC3 cells; TG 400 nM, 2 Gy): 0.42
Surviving Fraction (SF) (PE treated/PE control) (PC3 cells; TG 400 nM, 2 Gy): 0.25
NET survival (SF/TG toxicity) (PC3 cells; TG 400 nM, 4 Gy): 0.22
Surviving Fraction (SF) (PE treated/PE control) (PC3 cells; TG 400 nM, 4 Gy): 0.13
clonogenic cell survival in vitro (result in words) (PC3 cells; summary of Table 2): inhibits clonogenic cell survival in vitro
inhibition of Ca++-ATPase pumps of the endoplasmic reticulum [4]: specifically inhibits
tumor growth delay, combination with RT ([5]; TG 0.5 mg/kg daily IP day 4-18 with fractionated RT days 7-11): the independent effects of TG and RT were additive
tumor growth delay, combination with RT extended to 2 weeks ([5]; TG 0.5 mg/kg daily IP day 4-18 with fractionated RT days 7-11 and 14-18): the additional benefit of the TG administration was maintained
tumor growth delay ([5]; TG 0.5 mg/kg daily IP, day 4-18, alone, FIG. 1): produced a measurable tumor growth delay

COC(=O)CCC(=O)N[C@@H](CCCNC(=N)N)C(=O)N1CCC[C@H]1C(=O)N[C@@H](Cc1ccc(O)cc1)C(=O)Nc1ccc([N+](=O)[O-])cc1 [compound 2] (MeOSuc-Arg-Pro-Tyr-pNA)
cleavage, release of pNA [6]: neither newborn calf serum, nor pooled human serum cleaved
cleavage, release of pNA [7]: neither newborn calf serum, nor pooled human serum cleaved

NCCCCNCCCF [N-3 fluoropropylputrescine]
distribution to prostate and bone relative to blood and muscle [8]: selectively distributed to prostate and bone
